Source: ChEMBL document CHEMBL1144649, “2-cyanoaminopyrimidines as a class of antitumor agents that promote tubulin polymerization” (Bioorg Med Chem Lett, 2007)
Active and inactive are the calls of the source. No cut-off for these calls is given here.

Experiments:
[1] = Antiproliferative activity against KBV1cells; format: functional, cell-based; settings: Homo sapiens, KB-V1
COLO 205 = assay: Cytotoxicity against COLO205 cells; format: functional, cell-based; settings: Homo sapiens
[2] = Antiproliferative activity against KB8.5 cells; format: functional, cell-based; settings: Homo sapiens
KB [3] = assay: Ratio of IC50 for KB8.5 cells to IC50 for KB cells; format: functional, Homo sapiens
Tubulin (Homo sapiens) [4] = biological target: T1, Tubulin (Homo sapiens) (UniProt P68371+Q9H4B7+P0DPH7+P68366+Q13509+Q71U36+P04350+Q3ZCM7+P07437+P68363+Q9BQE3+Q6PEY2+Q13885+Q9BVA1+Q9BUF5); assay: Stimulation of tubulin polymerization; format: protein-complex assay
[5] = Stability in nude mouse microsomes after 30 mins; format: ADME, Microsome; settings: read-out: Stability
Tubulin (Homo sapiens) [6] = biological target: T1, Tubulin (Homo sapiens); assay: Stimulation of MAP-rich tubulin polymerization; format: protein-complex assay
[7] = Solubility in water at pH 7.4; format: physicochemical
[8] = Ratio of IC50 for KB V1 cells to IC50 for KB cells
KB [9] = assay: Antiproliferative activity against KB cells; format: functional, cell-based; settings: Homo sapiens

Row | Structure (SMILES) | IC50 [1] [nM] | IC50 (COLO 205) [nM] | IC50 [2] [nM] | Ratio IC50 (KB [3]) | also measured
1 | CC(=O)O[C@H]1C(=O)[C@@]2(C)[C@H]([C@H](OC(=O)c3ccccc3)[C@]3(O)C[C@H](OC(=O)[C@H](O)[C@@H](NC(=O)c4ccccc4)c4ccccc4)C(C)=C1C3(C)C)[C@]1(OC(C)=O)CO[C@@H]1C[C@@H]2O [PACLITAXEL] | 2010 | – | – | – | –
2 | CN(C)CCCOc1cc(F)c(-c2c(Cl)nc(N(C)C#N)nc2NCC(F)(F)F)c(F)c1 | – | 52 | – | – | –
3 | C[C@H](Nc1nc(N(C)C#N)nc(Cl)c1-c1c(F)cc(OCCCN(C)C)cc1F)C(F)(F)F | 82 | 36 | 59 | 2.5 | Activity (Tubulin (Homo sapiens) [4]): Active; remaining at 0.5 h [5]: 92%; Activity (Tubulin (Homo sapiens) [6]): Active; solubility [7]: > 100 µg/mL; Ratio IC50 [8]: 3.5; IC50 (KB [9]): 24 nM
4 | CNCCCOc1cc(F)c(-c2c(Cl)nc3ncnn3c2N[C@@H](C)C(F)(F)F)c(F)c1.Cl | – | – | 67 | 2.9 | –
5 | CN(C)CCCCOc1cc(F)c(-c2c(Cl)nc(N(C)C#N)nc2NCC(F)(F)F)c(F)c1 | – | 229 | – | – | –
6 | CC[C@]1(O)C[C@H]2CN(CCc3c([nH]c4ccccc34)[C@@](C(=O)OC)(c3cc4c(cc3OC)N(C=O)[C@H]3[C@@](O)(C(=O)OC)[C@H](OC(C)=O)[C@]5(CC)C=CCN6CC[C@]43[C@@H]65)C2)C1 [VINCRISTINE] | 2040 | – | 58 | 26 | Ratio IC50 [8]: 925
7 | CN(C)CCOc1cc(F)c(-c2c(Cl)nc(N(C)C#N)nc2NCC(F)(F)F)c(F)c1 | – | 532 | – | – | –
8 | CCN(C#N)c1nc(Cl)c(-c2c(F)cc(F)cc2F)c(NCC(F)(F)F)n1 | – | 304 | – | – | –
9 | C=CCN(C#N)c1nc(Cl)c(-c2c(F)cc(F)cc2F)c(NCC(F)(F)F)n1 | – | 477 | – | – | –
10 | CN(C#N)c1nc(Cl)c(-c2c(F)cc(F)cc2F)c(NCC(F)(F)F)n1 | – | 214 | – | – | –
